Tested on: digitonin-permeabilized bovine adrenochromaffin cells
Format: cell-based

botulinum toxin type A
inhibition of Ca2+-stimulated catecholamine release: inhibition
